Test results reported in the supplement of paper PMC10307832.

Key:
Experiment in all cases: relative viability (nuclei count vs DMSO), 5 days (fraction); higher = more cells survive
Erlotinib + Alpelisib = compound: C#Cc1cccc(Nc2ncnc3cc(OCCOC)c(OCCOC)cc23)c1 [Erlotinib] + Cc1nc(NC(=O)N2CCC[C@H]2C(N)=O)sc1-c1ccnc(C(C)(C)C(F)(F)F)c1 [Alpelisib] (partner 2 µM)
Summary of the method: (§1)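 Relative viability was taken as the ratio of nuclei in treated wells to nuclei in vehicle wells. Lung cancer cell lines in 1536-well plates received compounds by pin tool one day after seeding, either one drug alone or a fixed anchor-drug dose plus five library-drug doses (not always all listed) in √10 steps. Nuclei were counted on 4× images after 5 days of treatment, and values are medians of duplicate plates.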

Erlotinib + Bortezomib = compound: C#Cc1cccc(Nc2ncnc3cc(OCCOC)c(OCCOC)cc23)c1 [Erlotinib] + CC(C)C[C@H](NC(=O)[C@H](Cc1ccccc1)NC(=O)c1cnccn1)B(O)O [Bortezomib] (partner 0.002 µM)
Summary of the method: as §1

AT9283 + Luminespib = compound: O=C(Nc1c[nH]nc1-c1nc2ccc(CN3CCOCC3)cc2[nH]1)NC1CC1 [AT9283] + CCNC(=O)c1noc(-c2cc(C(C)C)c(O)cc2O)c1-c1ccc(CN2CCOCC2)cc1 [Luminespib] (partner 0.01 µM)
Summary of the method: as §1

AT9283 + Pictilisib = compound: O=C(Nc1c[nH]nc1-c1nc2ccc(CN3CCOCC3)cc2[nH]1)NC1CC1 [AT9283] + CS(=O)(=O)N1CCN(Cc2cc3nc(-c4cccc5[nH]ncc45)nc(N4CCOCC4)c3s2)CC1 [Pictilisib] (partner 1 µM)
Summary of the method: as §1

Erlotinib + AZD7762 = compound: C#Cc1cccc(Nc2ncnc3cc(OCCOC)c(OCCOC)cc23)c1 [Erlotinib] + NC(=O)Nc1cc(-c2cccc(F)c2)sc1C(=O)N[C@H]1CCCNC1 [AZD7762] (partner 0.2 µM)
Summary of the method: as §1

| Cell Line | relative viability (Erlotinib + Alpelisib; first compound 0.02 µM) | relative viability (Erlotinib + Alpelisib; first compound 0.6325 µM) | relative viability (Erlotinib + Alpelisib; first compound 2 µM) | relative viability (Erlotinib + Bortezomib; first compound 0.02 µM) | relative viability (Erlotinib + Bortezomib; first compound 0.2 µM) | relative viability (Erlotinib + Bortezomib; first compound 0.6325 µM) | relative viability (Erlotinib + Bortezomib; first compound 2 µM) | relative viability (AT9283 + Luminespib; first compound 0.003 µM) | relative viability (AT9283 + Luminespib; first compound 0.03 µM) | relative viability (AT9283 + Luminespib; first compound 0.09487 µM) | relative viability (AT9283 + Luminespib; first compound 0.3 µM) | relative viability (AT9283 + Pictilisib; first compound 0.003 µM) | relative viability (AT9283 + Pictilisib; first compound 0.03 µM) | relative viability (AT9283 + Pictilisib; first compound 0.09487 µM) | relative viability (AT9283 + Pictilisib; first compound 0.3 µM) | relative viability (Erlotinib + Alpelisib; first compound 0.2 µM) | relative viability (Erlotinib + AZD7762; first compound 0.02 µM) | relative viability (Erlotinib + AZD7762; first compound 0.2 µM) | relative viability (Erlotinib + AZD7762; first compound 0.6325 µM) | relative viability (Erlotinib + AZD7762; first compound 2 µM) |
| --- | --- | --- | --- | --- | --- | --- | --- | --- | --- | --- | --- | --- | --- | --- | --- | --- | --- | --- | --- | --- |
| NCI-H1563 | 0.931 | 0.952 | 0.799 | 0.905 | 0.787 | 0.75 | 0.754 | 0.5 | 0.527 | 0.443 | 0.45 | 0.572 | 0.606 | 0.585 | 0.54 | – | – | – | – | – |
| NCI-H358 | 0.885 | 0.474 | 0.358 | – | – | – | – | 0.4 | 0.147 | 0.166 | 0.129 | 0.278 | 0.171 | 0.141 | 0.132 | 0.693 | 0.537 | 0.361 | 0.429 | 0.201 |
| IA-LM | 0.984 | 0.7 | 0.789 | 0.833 | – | 0.977 | 0.86 | – | – | – | – | 0.379 | 0.271 | 0.143 | 0.143 | – | – | – | – | – |
| EBC-1 | 0.792 | 0.757 | 0.792 | 0.609 | 0.588 | 0.477 | 0.587 | – | – | – | – | 0.368 | 0.158 | 0.149 | 0.124 | 0.772 | – | – | – | – |
| NCI-H1703 | 0.367 | 0.352 | 0.296 | 0.296 | 0.346 | 0.409 | 0.238 | – | – | – | – | 0.234 | 0.216 | 0.205 | 0.196 | 0.321 | 0.113 | 0.133 | 0.142 | 0.115 |
| NCI-H2170 | 0.895 | 0.578 | 0.308 | – | – | – | – | 0.821 | 0.574 | 0.509 | 0.176 | 0.309 | 0.234 | 0.176 | 0.151 | 0.745 | 0.862 | 0.737 | 0.54 | 0.35 |
| NCI-H2342 | – | – | – | – | – | – | – | 0.795 | 0.93 | 0.499 | 0.348 | – | – | – | – | – | 0.453 | 0.566 | 0.502 | – |
| NCI-H1793 | 0.747 | 0.516 | 0.579 | – | – | – | – | 0.194 | 0.184 | 0.179 | 0.136 | 0.317 | 0.331 | 0.183 | 0.196 | 0.549 | 0.683 | 0.31 | 0.438 | 0.258 |
| SW 1573 | 0.805 | 0.87 | – | 1.08 | 1.02 | 0.934 | 0.879 | 0.199 | 0.148 | 0.142 | 0.169 | 0.453 | 0.251 | 0.2 | 0.127 | 0.706 | – | – | – | – |
| SW 900 | – | – | – | – | – | – | – | 0.178 | 0.19 | 0.172 | 0.171 | – | – | – | – | – | 0.783 | 0.52 | 0.557 | 0.443 |
| ChaGo-K-1 | – | – | – | 0.847 | 1.09 | 1.23 | 0.749 | 0.63 | 0.422 | 0.289 | 0.26 | 0.357 | 0.511 | 0.179 | 0.233 | – | – | 0.922 | 0.845 | 0.76 |
| Calu-6 | 0.983 | 1.04 | 0.909 | 0.992 | 1.02 | 1.04 | 0.933 | – | – | – | – | 0.932 | 0.242 | 0.227 | 0.194 | 1.06 | – | – | – | – |
